Experimental data reported in patent publication US9150526B2, “Biaryl-propionic acid derivatives and their use as pharmaceuticals” (SANOFI, priority 2013, dated 2015).

tested on: Recombinant human cathepsin A; experiment: Cathepsin A inhibitory activity (Bodipy FL-bradykinin substrate, microfluidic capillary electrophoresis); type: biochemical; conditions: read-out: CATH A IC50

Compared with COc1cc(C)cc(OC)c1-c1cccc(C(CC(=O)O)c2nccs2)c1 (stereo not shown) [compound 14], COc1ccc(C(C)(C)C)cc1-c1cccc([C@H](CC(=O)O)c2nccs2)c1 [compound 5] is 1.9-fold lower in IC50: 66 nM for the first, 35 nM for the second.

Compared with CCOc1ccccc1-c1cncc(C(CC(=O)O)c2nnc(C)o2)c1 (stereo not shown) [compound 193], CCOc1ccccc1-c1cc(C(CC(=O)O)c2nnc(C)o2)cc(C(F)(F)F)c1 (stereo not shown) [compound 210] is 300-fold lower in IC50: 4270 nM for the first, 14 nM for the second.

Going from COc1cc(C(F)(F)F)ccc1-c1cccc(C(CC(=O)O)c2nccs2)c1 (stereo not shown) [compound 48] to COc1cc(C(N)=O)ccc1-c1cccc(C(CC(=O)O)c2nccs2)c1 (stereo not shown) [compound 45], the IC50 falls from 2280 nM to 1380 nM (1.7-fold).

First: COc1cccc(OC)c1-c1cc(F)cc(C(CC(=O)O)c2ncc(C)s2)c1 (stereo not shown) [compound 7]
Second: COc1ccc(OC)c(-c2cc(F)cc(C(CC(=O)O)c3ncc(C)s3)c2)c1 (stereo not shown) [compound 112]
The IC50 of the first is 24-fold lower: 5 nM for the first, 122 nM for the second. The first is the more potent here.

Compared with COc1cccc(Cl)c1-c1cc(C(CC(=O)O)c2nnc(C)o2)cc(C(F)(F)F)c1 (stereo not shown) [compound 214], COc1ccc(OC(F)(F)F)cc1-c1cc(F)cc(C(CC(=O)O)c2nnc(C)o2)c1 (stereo not shown) [compound 168] is 9.7-fold higher in IC50: 17 nM for the first, 165 nM for the second.

Going from COc1ccc(C(C)C)cc1-c1cc(F)cc(C(CC(=O)O)c2nnc(C)o2)c1 (stereo not shown) [compound 160] to COc1cc(F)ccc1-c1cccc(C(CC(=O)O)c2nnc(C)o2)c1 (stereo not shown) [compound 146], the IC50 rises from 44 nM to 129 nM (2.9-fold).

COc1ccc(C(C)(C)C)cc1-c1cccc(C(CC(=O)O)c2nnc(C)o2)c1 (stereo not shown) [compound 9] showed an IC50 of 61 nM.
